Assay results as given in patent publication US9249128B2 (priority 2010, dated 2016).
Read-outs that look alike come from different tables or passages of the source.

Legend:
KIAA1363 [1] = biological target: T1, KIAA1363 (Homo sapiens, UniProt Q6PIU2); assay: Gel-based competitive ABPP of living PC3 cells, in situ treatment; assay type: cell-based; parameters: PC3 cancer cells, which have high endogenous KIAA1363 levels; endogenous in cells; host or cells: PC3; conditions: for IC50: in situ treatment
T1 sequence (Q6PIU2 1-408): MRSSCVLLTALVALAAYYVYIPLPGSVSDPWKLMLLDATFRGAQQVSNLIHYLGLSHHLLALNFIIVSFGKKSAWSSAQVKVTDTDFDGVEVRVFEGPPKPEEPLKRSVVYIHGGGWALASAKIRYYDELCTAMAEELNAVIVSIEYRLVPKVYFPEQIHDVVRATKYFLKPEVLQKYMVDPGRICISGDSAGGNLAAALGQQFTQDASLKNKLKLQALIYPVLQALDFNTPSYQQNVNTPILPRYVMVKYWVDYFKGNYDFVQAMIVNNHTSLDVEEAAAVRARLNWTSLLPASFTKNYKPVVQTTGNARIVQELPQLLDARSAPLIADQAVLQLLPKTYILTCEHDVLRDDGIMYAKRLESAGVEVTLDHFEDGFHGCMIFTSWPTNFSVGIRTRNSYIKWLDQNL
Protocol: Inhibitors were dissolved in DMSO and diluted into media or buffer prior to cell or proteome treatment, respectively. For in vitro treatment, final DMSO concentration was 4%. For in situ treatments of cells for ABPP, lipid measurements, migration, cell-survival, and invasion assays, 2×10^6 cells were seeded in 6 cm dishes (˜100% confluency) 24 h prior to inhibitor pre-treatment (in DMSO at 0.1% final concentration) in serum-free media (3 mL) for the designated time before harvesting cells for ABPP or lipid measurements or before the initiation of migration, cell-survival, and invasion assays.
(§1) For ABPP experiments, cell lysate and tissue proteomes were treated with 1 μM FP-rhodamine for 30 min at room temperature (50 μL total reaction volume) as described previously (Nomura et al., 2010). Reactions were quenched with one volume of standard 4×SDS/PAGE loading buffer (reducing), separated by SDS/PAGE (10% acrylamide), and visualized in-gel with a Hitachi FMBio IIe flatbed fluorescence scanner (MiraiBio). Inhibitors were preincubated prior (30 min or 4 h at 37° C. in vitro or in situ, respectively) to the addition of FP-rhodamine.
JW576 was dissolved in DMSO and diluted into media or buffer prior to cell or proteome treatment, respectively. For in vitro treatment, final DMSO concentration was 4%. For in situ treatments of cells for ABPP, 2×10^6 cells were seeded in 6 cm dishes (100% confluency) 24 hr prior to JW576 pretreatment with or without JW480 (in DMSO at 0.1% final concentration) in serum-free media (3 ml) for the designated time before harvesting cells for ABPP.
For ABPP experiments, cell lysate and tissue proteomes were treated with 1 μM FP-rhodamine for 30 min at room temperature ([…]). Reactions were quenched with one volume of standard 4×SDS/PAGE loading buffer (reducing), separated by SDS/PAGE (10% acrylamide), and visualized in-gel with a Hitachi FMBio IIe flatbed fluorescence scanner (MiraiBio). For experiments involving a preincubation with JW576 in the presence or absence of the non-fluorescent competitor JW480, the reactions were prepared without FP-rhodamine. JW576 were added at the indicated concentration and incubated for the indicated time at 37° C. FP-rhodamine was then added and the reaction was carried out exactly as described above.

KIAA1363 [2] = biological target: T1, KIAA1363; assay: 2-acetyl MAGE hydrolytic activity assay in cancer cells treated in situ; assay type: cell-based; parameters: PC3 cancer cells, which have high endogenous KIAA1363 levels; endogenous in cells; host or cells: PC3 (2-acetyl MAGE assay also DU145 and SKOV3); conditions: JW480 1 μM, 48 h; PC3 and DU145 cells
Protocol: Cells were pretreated with KIAA1363 inhibitors in situ (for 4 hr in serum-free F-12K media before harvesting cells by scraping) or in vitro (for 30 min at 37° C. in PBS) before addition of 2-acetyl MAGE (100 μM) to cell lysates at room temperature for 30 min in a volume of 200 μL. Reactions were quenched with 600 μL 2:1 chloroform:methanol and 10 nmol of C12:0 MAGE internal standard was added. The organic layer was extracted and 30 μL injected into an Agilent 1100-MSD LC-MS. LC-MS settings were as previously described (Chiang et al., 2006). Product levels (C16:0 MAGE) were quantified in relation to the internal standard. Specific activity was determined during the linear phase of enzymatic reactions (i.e., less than 20% substrate utilized).
Cell lysates (20 μg) in Tris buffer were then incubated with lipid (100 mM, e.g., 2-acetyl MAGE for KIAA1363 activity) at room temperature for 30 min in a volume of 200 ml. Reactions were quenched with 600 ml 2:1 chloroform:methanol and 10 nmol of C12:0 MAGE internal standard was added. […] Product levels (C16:0 MAGE for KIAA1363 activity) were quantified in relation to internal standard levels and standard curves generated between varying lipid concentration versus constant internal standard levels. Specific activity was determined during the linear phase of enzymatic reactions (i.e., less than 20% substrate utilized)

brain KIAA1363 = biological target: T2, brain KIAA1363 (Mus musculus, UniProt Q8BLF1); assay: Competitive ABPP of brain proteomes from inhibitor-treated mice; assay type: in vivo
T2 construct: ABPP analysis of KIAA1363 activity in mouse brain membrane proteome; from tissue; host or cells: mouse brain (membrane fraction)
T2 sequence (Q8BLF1 1-408): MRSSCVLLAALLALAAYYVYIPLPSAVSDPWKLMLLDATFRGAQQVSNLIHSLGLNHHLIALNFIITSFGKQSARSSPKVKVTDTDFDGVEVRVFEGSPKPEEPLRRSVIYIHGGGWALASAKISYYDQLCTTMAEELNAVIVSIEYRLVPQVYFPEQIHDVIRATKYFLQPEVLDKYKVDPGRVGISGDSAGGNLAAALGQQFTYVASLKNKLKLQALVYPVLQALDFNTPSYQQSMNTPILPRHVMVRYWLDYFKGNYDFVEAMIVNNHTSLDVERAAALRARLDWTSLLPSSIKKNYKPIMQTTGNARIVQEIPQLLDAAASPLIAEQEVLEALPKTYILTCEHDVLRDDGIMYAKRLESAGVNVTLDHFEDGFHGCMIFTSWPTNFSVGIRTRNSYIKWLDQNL
Protocol: Tissues were Dounce-homogenized in PBS, pH 7.4, followed by a low-speed spin (1,400 g, 5 min) to remove debris. The supernatant was then subjected to centrifugation (100,000×g, 45 min) to provide the cytosolic fraction in the supernatant and the unsoluble fraction as a pellet. The pellet was washed and resuspended in PBS buffer by sonication. Total protein concentration in each fraction was determined using a protein assay kit (Bio-Rad). Samples were stored at −80° C. until use.
as §1
JW480 was administered by oral gavage (in PEG300, 4 μL/g mouse) or intraperitoneally (in 18:1:1 v/v/v solution of saline:ethanol:emulphor, 10 μL/g). After the indicated amount of time, mice were anesthetized with isoflurane and killed by decapitation. Tissues were removed and then flash frozen in liquid N2. Tissues were stored at −80° C. until use. Animal experiments were conducted in accordance with the guidelines of the institutional Animal Care and Use Committee of The Scripps Research Institute.

CC(C)c1ccccc1OC(=O)NCCc1ccc2ccccc2c1 [JW480, 2-isopropylphenyl (2-(naphthalen-2-yl)ethyl)carbamate]
Duration of in situ inhibition of KIAA1363 (KIAA1363 [1]; JW480 1 μM, PC3 cells): at least 48 hr | IC50 (KIAA1363 [1]; PC3 cells, read-out: IC50 for KIAA1363, in situ (FIG. 3B)): 6 nM | IC50 (KIAA1363 [1]; presence or absence of 10% fetal calf serum, read-out: IC50 for KIAA1363 in living PC3 cells): 6 to 12 nM | 2-acetyl MAGE hydrolase activity (KIAA1363 [2]): completely blocked | Selectivity for KIAA1363 in brain proteomes from treated mice (gel-based ABPP) (brain KIAA1363; 1-80 mg/kg, i.p. or oral, 4 hr): excellent selectivity | Dose required to completely inactivate brain KIAA1363 in SCID mice (brain KIAA1363; immunedeficient SCID mouse strain, oral): 80 mg/kg | Dose giving complete inhibition of brain KIAA1363, i.p. (brain KIAA1363; mice, i.p., 4 hr): 5 mg/kg | Dose giving complete inhibition of brain KIAA1363, oral (brain KIAA1363; normal mice, oral, 4 hr): 20 mg/kg | Duration of KIAA1363 inhibition in vivo (brain KIAA1363; single administration 20 mg/kg, oral): up to 24 hr
